These results are taken from patent US7612064B2, “Sulfopyrroles” (Takeda Pharmaceutical Company Limited, priority 2003, dated 2009).

Experiment [1] has as its system HeLa. The experiment is described as follows: MTS proliferation assay. It is filed as cell-based, human. To be noted: 72 h. The protocol: (§1) The assay is performed in 96 well tissue culture plates. […] The test compounds are added in 20 μl complete medium containing max 5% DMSO. The final compound concentrations in the assays are 10 μM, 3 μM, 1 μM and 0.3 μM, respectively. The assay plates are incubated for 72 h at culture conditions. The MTS reagent is prepared according to the manufacturer's protocol (Promega G1111). 20 μl MTS reagent are added to each well, the assay plates are quickly spun and incubated for another 3 h at culture conditions. Subsequently, the plates are shortly shacked and absorption measured with a microplate-reader at 492 nm.

The test system of experiment [2] is Jurkat. The experiment is described as follows: MTS proliferation assay. The following applies: 72 h. It counts as cell-based, human. The protocol:
as §1

The subject of experiment [3] is MRC5. As to the kind of experiment: MTS proliferation assay. It counts as cell-based. To be noted: MRC5, 72 h. The protocol:
as §1

Experiment [4] can be described thus: Hoechst 33342 nuclear staining.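 For all read-outs here: apoptotic nuclei scored 0 none 1 weak under 50% of cells 2 strong over 50% of cells.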 It counts as cell-based. The following applies: for Hoechst 33342 nuclear staining score, HeLa: HeLa cells; for Hoechst 33342 nuclear staining score, Jurkat: Jurkat cells; for Hoechst 33342 nuclear staining score, H460: H460 cells; for Hoechst 33342 nuclear staining score, Jily: Jily cells; for Hoechst 33342 nuclear staining score, MRC5: MRC5 cells. Here is the method:
This assay is performed in 96 well tissue culture plates. Appropriate number of cells (adherent cells: 3-5*10^3, suspension cells: 8-10*10^3) are being seeded out in 80 μl complete medium. Adherent cells are incubated for 24 h for proper spreading out before addition of test compounds while suspension cells are immediately treated with test compounds after seeding out. The test compounds are added in 20 μl complete medium containing max 5% DMSO. […] […] The assay plates are then further incubated for 30 min and subsequently analyzed with a standard inverted fluorescence microscope.
The readout allows the determination of the fraction of apoptotic nuclei as well as other morphological criteria specific for apoptosis as a function of the treatment. The following scores are used: 0 relating to no activity, 1 relating to weak activity comprising less than 50% of the cells and score 2 relating to strong activity comprising more than 50% of the cells.

Where [5] appears, read: conc 0.1 (final concentrations in μM), 24 h or 48 h incubation.
Where [6] appears, read: conc 0.3 (final concentrations in μM), 24 h or 48 h incubation.
[7] abbreviates: conc 1 (final concentrations in μM), 24 h or 48 h incubation.
The mark [8] stands for this setting: conc 3 (final concentrations in μM), 24 h or 48 h incubation.

For the compound `COc1cc(-c2cc(CNCCCN3CCN(C)CC3)cn2S(=O)(=O)c2ccc(C)cc2)cc(OC)c1OC` [Example 3], the IC50 in experiment [1], in experiment [2] and in experiment [3] was greater than 1000 nM each time.
Regarding `CN1CCN(CCCNCc2cc(-c3ccc4c(c3)OCO4)n(S(=O)(=O)c3cccc(Cl)c3)c2)CC1` [Example 4, 1-(m-Chlorobenzenesulfonyl)-2-(3,4-methylenedioxyphenyl)-4-(N-[3-{4-methylpiperazinyl}-propyl]-aminomethyl)-pyrrole], the IC50 in experiment [1], in experiment [2] and in experiment [3] was greater than 1000 nM in each case.
In the case of `NC(=O)c1ccc(-c2cc(-c3ccc4c(c3)OCO4)n(S(=O)(=O)c3cccc(Cl)c3)c2)cc1` [Example 5, p-(1-[m-chlorobenzenesulfonyl]-2-[3,4-methylenedioxyphenyl]-4pyrrolyl)-benzamide], the IC50 in experiment [1] (Homo sapiens), in experiment [2] (Homo sapiens) and in experiment [3] (Homo sapiens) was greater than 1000 nM in each case.
In the case of `Cc1ccc(S(=O)(=O)n2cc(CNCCCN3CCN(C)CC3)cc2-c2ccc3c(c2)OCO3)cc1` [Example 12], the IC50 in experiment [1], in experiment [2] and in experiment [3] was greater than 1000 nM throughout. In addition, the “Hoechst 33342 nuclear staining score, HeLa” value in experiment [4] (setting [5]), in experiment [4] (setting [6]), in experiment [4] (setting [7]) and in experiment [4] (setting [8]) was 0 in each case. For the same compound, the “Hoechst 33342 nuclear staining score, Jurkat” value in experiment [4] (setting [5]), in experiment [4] (setting [6]), in experiment [4] (setting [7]) and in experiment [4] (setting [8]) was 0 in each case.
For `Cc1ccc(S(=O)(=O)n2cc(CNc3ccc(N4CCOCC4)cc3)cc2-c2ccc3c(c2)OCO3)cc1.Cl` [Example 14], the IC50 in experiment [1], in experiment [2] and in experiment [3] was greater than 1000 nM in each case. In addition, the “Hoechst 33342 nuclear staining score, HeLa” value in experiment [4] (setting [5]) is listed as 0; in experiment [4] (setting [6]), 0; in experiment [4] (setting [7]), 0; in experiment [4] (setting [8]), 2 (strong activity comprising more than 50% of the cells). In addition, the “Hoechst 33342 nuclear staining score, Jurkat” value in experiment [4] (setting [5]) is given as 0; in experiment [4] (setting [6]) it was 0; in experiment [4] (setting [7]), 0; in experiment [4] (setting [8]), 2 (strong activity comprising more than 50% of the cells).
Regarding `CCN1CCN(CCNCc2cc(-c3ccc4c(c3)OCO4)n(S(=O)(=O)c3ccc(C)cc3)c2)CC1` [Example 15], the IC50 in experiment [1], in experiment [2] and in experiment [3] was greater than 1000 nM in each case. Moreover, the “Hoechst 33342 nuclear staining score, HeLa” value in experiment [4] (setting [5]), in experiment [4] (setting [6]), in experiment [4] (setting [7]) and in experiment [4] (setting [8]) was 0 throughout. The “Hoechst 33342 nuclear staining score, Jurkat” value in experiment [4] (setting [5]), in experiment [4] (setting [6]), in experiment [4] (setting [7]) and in experiment [4] (setting [8]) was 0 each time.
As for `Cc1ccc(S(=O)(=O)n2cc(CNCCN3CCN(Cc4ccccc4)CC3)cc2-c2ccc3c(c2)OCO3)cc1` [Example 16], the IC50 in experiment [1], in experiment [2] and in experiment [3] was greater than 1000 nM throughout. Besides, the “Hoechst 33342 nuclear staining score, HeLa” value is 0 in experiment [4] (setting [5]), 0 in experiment [4] (setting [6]), 0 in experiment [4] (setting [7]) and 1 (weak activity comprising less than 50% of the cells) in experiment [4] (setting [8]). For the same compound, the “Hoechst 33342 nuclear staining score, Jurkat” value in experiment [4] (setting [5]), in experiment [4] (setting [6]), in experiment [4] (setting [7]) and in experiment [4] (setting [8]) was 0 in each case.
With `Cc1ccc(S(=O)(=O)n2cc(CNCCN3CCCC3)cc2-c2ccc3c(c2)OCO3)cc1` [Example 17], the IC50 in experiment [1], in experiment [2] and in experiment [3] was greater than 1000 nM each time. In addition, the “Hoechst 33342 nuclear staining score, HeLa” value in experiment [4] (setting [5]), in experiment [4] (setting [6]), in experiment [4] (setting [7]) and in experiment [4] (setting [8]) was 0 each time. The “Hoechst 33342 nuclear staining score, Jurkat” value in experiment [4] (setting [5]), in experiment [4] (setting [6]), in experiment [4] (setting [7]) and in experiment [4] (setting [8]) was 0 throughout.
For `Cc1ccc(S(=O)(=O)n2cc(CNCCN3CCCCC3)cc2-c2ccc3c(c2)OCO3)cc1` [Example 18], the IC50 in experiment [1], in experiment [2] and in experiment [3] was greater than 1000 nM in each case. The “Hoechst 33342 nuclear staining score, HeLa” value in experiment [4] (setting [5]), in experiment [4] (setting [6]), in experiment [4] (setting [7]) and in experiment [4] (setting [8]) was 0 in each case. Besides, the “Hoechst 33342 nuclear staining score, Jurkat” value in experiment [4] (setting [5]), in experiment [4] (setting [6]), in experiment [4] (setting [7]) and in experiment [4] (setting [8]) was 0 in each case.
With `Cc1ccc(S(=O)(=O)n2cc(CNC(CN3CCN(C)CC3)c3ccccc3)cc2-c2ccc3c(c2)OCO3)cc1` (stereo not shown) [Example 24], the IC50 in experiment [2] and in experiment [3] was greater than 1000 nM in each case. Besides, the “Hoechst 33342 nuclear staining score, HeLa” value in experiment [4] (setting [5]), in experiment [4] (setting [6]), in experiment [4] (setting [7]) and in experiment [4] (setting [8]) was 0 in each case. Also, the “Hoechst 33342 nuclear staining score, Jurkat” value in experiment [4] (setting [5]), in experiment [4] (setting [6]), in experiment [4] (setting [7]) and in experiment [4] (setting [8]) was 0 throughout.
As for `Cc1ccc(S(=O)(=O)n2cc(-c3ccc(C(N)=O)cc3)cc2-c2ccc3c(c2)OCO3)cc1` [Example 47], the IC50 in experiment [1] and in experiment [2] was greater than 1000 nM each time. Further, the “Hoechst 33342 nuclear staining score, HeLa” value in experiment [4] (setting [5]) is given as 0; in experiment [4] (setting [6]) it was 0; in experiment [4] (setting [7]) it was 2 (strong activity comprising more than 50% of the cells); in experiment [4] (setting [8]) it was 2 (strong activity comprising more than 50% of the cells). In addition, the “Hoechst 33342 nuclear staining score, Jurkat” value in experiment [4] (setting [5]), in experiment [4] (setting [6]), in experiment [4] (setting [7]) and in experiment [4] (setting [8]) was 0 throughout.
`COc1cc(-c2cc(-c3cncc(CN(C)C)c3)cn2S(=O)(=O)c2ccc(C)cc2)cc(OC)c1OC` [Example 59]: in experiment [1], the IC50 is greater than 1000 nM. In experiment [3], the IC50 was greater than 1000 nM. For the same compound, in experiment [4] (conc 0.1), the “Hoechst 33342 nuclear staining score, H460” value is 0; the “Hoechst 33342 nuclear staining score, HeLa” value is 0; the “Hoechst 33342 nuclear staining score, Jily” value is reported as 0; the “Hoechst 33342 nuclear staining score, Jurkat” value is on record as 0. Besides, in experiment [4] (conc 0.1), the “Hoechst 33342 nuclear staining score, MRC5” value amounted to 0 and the “Hoechst 33342 nuclear staining score, PBLs” value was found to be 0. In addition, in experiment [4] (conc 0.3), the “Hoechst 33342 nuclear staining score, H460” value came out at 0; the “Hoechst 33342 nuclear staining score, HeLa” value is 0; the “Hoechst 33342 nuclear staining score, Jily” value came out at 0; the “Hoechst 33342 nuclear staining score, Jurkat” value is 0. In addition, in experiment [4] (conc 0.3), the “Hoechst 33342 nuclear staining score, MRC5” value was 0 and the “Hoechst 33342 nuclear staining score, PBLs” value is 0. In experiment [4] (conc 1), the “Hoechst 33342 nuclear staining score, H460” value turned out to be 0; the “Hoechst 33342 nuclear staining score, HeLa” value is reported as 0; the “Hoechst 33342 nuclear staining score, Jily” value was 0; the “Hoechst 33342 nuclear staining score, Jurkat” value came out at 0. For the same compound, in experiment [4] (conc 1), the “Hoechst 33342 nuclear staining score, MRC5” value is listed as 0 and the “Hoechst 33342 nuclear staining score, PBLs” value is given as 0. Moreover, in experiment [4] (conc 3), the “Hoechst 33342 nuclear staining score, H460” value is 2 (strong activity comprising more than 50% of the cells); the “Hoechst 33342 nuclear staining score, HeLa” value is given as 0; the “Hoechst 33342 nuclear staining score, Jily” value is 0; the “Hoechst 33342 nuclear staining score, Jurkat” value is recorded as 2 (strong activity comprising more than 50% of the cells). For the same compound, in experiment [4] (conc 3), the “Hoechst 33342 nuclear staining score, MRC5” value was found to be 0 and the “Hoechst 33342 nuclear staining score, PBLs” value was 0.
